The results in this text go back to ChEMBL document CHEMBL1201862, “PubChem BioAssay data set” (2004).

Test systems include COLO 205; EKVX; A549; SF-268; SK-OV-3; HCT-15; RXF 393; SK-MEL-28; HL-60; HOP-92; NCI-H226; SF-539; MCF7; SW-620; IGROV-1; NCI-H522.
What all share (assay): NCI tumour cell line growth inhibition, 48 h

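How tested: cells in 96-well plates exposed to compound for 48 hours at five concentrations. GI50 is the concentration that inhibits growth by half.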 The source made the active and inactive calls. Cut-off read from the data, not from the text of the source: active = GI50 up to about 1.1 µM and inactive = higher. Positions of bridges follow the written chain, without caps; N, C: chain ends. Non-standard residues stand in square brackets, D forms with d. Residues, ends and D or L forms follow the SMILES beside them. Aib = CC(C)(N)C(=O)O; βAla = NCCC(=O)O Bounds are passed on as bounds.

Take `O=C1/C(=C/c2ccc([N+](=O)[O-])cc2)CNC/C1=C\c1ccc([N+](=O)[O-])cc1`: the GI50 with COLO 205 is 5.62 µM (inactive); with EKVX, 9.86 µM (inactive); in the test on A549 it was 17.5 µM (inactive); in the test on SF-268 it was 1.65 µM (inactive); in the test with SK-OV-3, 48 µM (inactive); in the test with HCT-15, 1.13 µM. Further, the GI50 in the test with RXF 393 was 12.2 µM (inactive); in the test on SK-MEL-28, 1.82 µM (inactive); in the test with HL-60, 0.0944 µM (active); with HOP-92, 22.1 µM (inactive); in the test on NCI-H226, 15 µM (inactive); with SF-539 it was 2.09 µM (inactive). Moreover, the GI50 in the test with MCF7 is 2.74 µM (inactive); in the test on SW-620, 0.638 µM (active); in the test on IGROV-1, 1.84 µM (inactive); in the test with NCI-H522, 2.52 µM (inactive).

For the molecule `CC1(C)NC(=O)C(NC(=O)C(N)CC(=O)O)CCCCNC(=O)CCNC1=O` (configuration not stated) (H-DK[Aib][βAla]; lactam 2-C; configuration not given here), the GI50 in the test on COLO 205 is > 100 µM (inactive); in the test on EKVX, > 100 µM (inactive); in the test with A549, > 100 µM (inactive); in the test with SF-268, > 100 µM (inactive); in the test on SK-OV-3 it was > 100 µM (inactive); in the test on HCT-15 it was above 100 µM. In addition, the GI50 with RXF 393, in the test with SK-MEL-28, in the test with HOP-92, in the test on NCI-H226, with SF-539 and in the test with MCF7 was > 100 µM (inactive) each time. Further, the GI50 in the test with SW-620, in the test with IGROV-1 and in the test on NCI-H522 was > 100 µM (inactive) in each case.

For the molecule `CC(=O)OC1COC(n2nc(N)nc2C)C(OC(C)=O)C1OC(C)=O` (configuration not stated), the GI50 was > 100 µM (inactive) in the test with COLO 205; > 100 µM (inactive) with EKVX; > 100 µM (inactive) in the test on A549; > 100 µM (inactive) in the test on SF-268; > 100 µM (inactive) in the test with SK-OV-3; above 100 µM with HCT-15. In addition, the GI50 with RXF 393, in the test with SK-MEL-28, in the test with HL-60, in the test on HOP-92, in the test with NCI-H226 and with MCF7 was > 100 µM (inactive) each time. Further, the GI50 in the test with SW-620, in the test with IGROV-1 and in the test with NCI-H522 was > 100 µM (inactive) in each case.

`CCc1nc(N)nc(N)c1-c1ccc2nnn(O)c2c1`: the GI50 in the test with COLO 205 was > 100 µM (inactive); in the test on EKVX, > 100 µM (inactive); in the test on A549, > 73.6 µM (inactive); in the test with SF-268 it was > 100 µM (inactive); with SK-OV-3 it was > 100 µM (inactive); in the test with HCT-15, above 100 µM. The GI50 in the test on RXF 393, in the test on SK-MEL-28, with HL-60, with HOP-92, in the test with NCI-H226 and with SF-539 was > 100 µM (inactive) throughout. Moreover, the GI50 in the test with MCF7, with SW-620, with IGROV-1 and with NCI-H522 was > 100 µM (inactive) throughout.

As to `COc1ccc2c(c1)/C(=C(\C(Cl)=C(Cl)Cl)[N+](=O)[O-])N2`, the GI50 in the test on COLO 205 is > 100 µM (inactive); with EKVX, 26.7 µM (inactive); in the test with A549, > 100 µM (inactive); with SF-268, 70.3 µM (inactive); in the test on SK-OV-3, > 100 µM (inactive); in the test with HCT-15 it was above 100 µM. The GI50 with RXF 393 is 39.5 µM (inactive); in the test on SK-MEL-28, > 100 µM (inactive); in the test with HL-60, > 100 µM (inactive); in the test on HOP-92, > 100 µM (inactive); with NCI-H226, 22.3 µM (inactive); in the test with MCF7, > 100 µM (inactive). The GI50 with SW-620 was 73.8 µM (inactive); with IGROV-1, > 100 µM (inactive); in the test on NCI-H522, 25.3 µM (inactive).

For `CC(C)[C@@H]1NC(=O)[C@@H]2N=C(O[C@H]2C)[C@H](C(C)C)NC(=O)C2N=C1O[C@H]2C`, the GI50 in the test on COLO 205 was > 100 µM (inactive); in the test with EKVX, > 100 µM (inactive); with A549, > 100 µM (inactive); in the test on SF-268, > 100 µM (inactive); in the test with HCT-15, above 100 µM; with RXF 393, > 100 µM (inactive). The GI50 was > 100 µM (inactive) in the test on SK-MEL-28; > 100 µM (inactive) in the test on HL-60; 94.4 µM (inactive) with HOP-92; > 100 µM (inactive) in the test with NCI-H226; > 100 µM (inactive) with SF-539; > 100 µM (inactive) in the test with MCF7. The GI50 in the test on SW-620, in the test on IGROV-1 and in the test with NCI-H522 was > 100 µM (inactive) each time.

On to `N#CC1C(=O)N(c2ccccc2)NC12OC(=O)c1ccncc12` (configuration not stated), for which the GI50 in the test on COLO 205 was > 20 µM (inactive); with EKVX, > 20 µM (inactive); in the test on A549, > 20 µM (inactive); with SK-OV-3 it was > 20 µM (inactive); in the test on HCT-15, above 20 µM; with RXF 393 it was > 20 µM (inactive). In addition, the GI50 in the test on SK-MEL-28, with HL-60, with HOP-92, with NCI-H226, in the test on SF-539 and with MCF7 was > 20 µM (inactive) throughout. Also, the GI50 in the test on SW-620, with IGROV-1 and in the test with NCI-H522 was > 20 µM (inactive) each time.

On to `O=c1[nH]c2cc(C(F)(F)F)ccc2nc1Cc1ccccc1`, for which the GI50 in the test on COLO 205 was > 100 µM (inactive); in the test on EKVX, > 100 µM (inactive); in the test with SF-268, 44.2 µM (inactive); with SK-OV-3, 33 µM (inactive); in the test on HCT-15, above 100 µM; in the test with RXF 393, 37.7 µM (inactive). The GI50 in the test with SK-MEL-28 was > 100 µM (inactive); with HL-60, > 100 µM (inactive); in the test with HOP-92 it was 18.5 µM (inactive); in the test with NCI-H226 it was > 100 µM (inactive); in the test on SF-539, 63.2 µM (inactive); with MCF7 it was > 100 µM (inactive). Also, the GI50 in the test on SW-620 is > 100 µM (inactive); in the test on IGROV-1, 46.7 µM (inactive).

In the case of `CN(C)CC[N+](C)(C)[BH2-]C(O)O`, the GI50 was > 100 µM (inactive) with COLO 205; > 100 µM (inactive) in the test with EKVX; > 100 µM (inactive) in the test with A549; > 100 µM (inactive) in the test with SF-268; above 100 µM in the test on HCT-15; > 100 µM (inactive) in the test with RXF 393. Besides, the GI50 with SK-MEL-28, with HL-60, in the test with HOP-92, with SF-539, in the test on MCF7 and in the test with SW-620 was > 100 µM (inactive) each time. In addition, the GI50 in the test with IGROV-1 and with NCI-H522 was > 100 µM (inactive) throughout.

`CCCCC/C(C=O)=C\c1ccccc1`: the GI50 was > 100 µM (inactive) with COLO 205; > 100 µM (inactive) in the test with EKVX; > 100 µM (inactive) in the test with SF-268; > 100 µM (inactive) in the test on SK-OV-3; above 100 µM in the test on HCT-15; > 100 µM (inactive) in the test with RXF 393. Moreover, the GI50 with SK-MEL-28, in the test with HL-60, in the test on HOP-92, with NCI-H226, in the test on SF-539 and in the test on MCF7 was > 100 µM (inactive) in each case. Besides, the GI50 with SW-620 and in the test on IGROV-1 was > 100 µM (inactive) throughout.

Consider `Cc1ccc(S(=O)(=O)N2CCSCCSCCSCCN(S(=O)(=O)c3ccc(C)cc3)CC2)cc1`, for which the GI50 in the test on COLO 205, in the test on EKVX, with A549, in the test with SF-268, with SK-OV-3 and with RXF 393 was > 100 µM (inactive) each time. Moreover, the GI50 with SK-MEL-28, in the test with HL-60, in the test with HOP-92, with NCI-H226, in the test on SF-539 and in the test on MCF7 was > 100 µM (inactive) in each case. In addition, the GI50 in the test with SW-620 and in the test with IGROV-1 was > 100 µM (inactive) in each case.

With `O=C(NCc1ccccc1)c1cc2ccccc2o/c1=N\c1ccccc1F`, the GI50 was 26.4 µM (inactive) with COLO 205; 27.7 µM (inactive) in the test with EKVX; 18.1 µM (inactive) in the test on A549; 30.8 µM (inactive) in the test on SF-268; 16.5 µM (inactive) in the test on SK-OV-3; 51.2 µM in the test on HCT-15. Also, the GI50 is 21.5 µM (inactive) with RXF 393; 66.2 µM (inactive) in the test on SK-MEL-28; > 100 µM (inactive) in the test on HL-60; 20 µM (inactive) with HOP-92; 31.6 µM (inactive) in the test on NCI-H226; 33.7 µM (inactive) with MCF7. The GI50 in the test with SW-620 is 26.1 µM (inactive); with IGROV-1, 24 µM (inactive); in the test on NCI-H522, 22 µM (inactive).

`CC(C)(C)C1CCC2c3c([nH]c4ccccc34)C3C(=O)N(c4ccccc4[N+](=O)[O-])C(=O)C3C2C1` (configuration not stated): the GI50 with COLO 205 was 10.5 µM (inactive); in the test on EKVX, 11.4 µM (inactive); in the test with A549, 7 µM (inactive); in the test with SF-268, > 10 µM (inactive); in the test on SK-OV-3 it was 37.5 µM (inactive); in the test with HCT-15, 11.2 µM. Also, the GI50 in the test with RXF 393 is 6.65 µM (inactive); in the test with HL-60 it was 11.7 µM (inactive); in the test on HOP-92, 1.71 µM (inactive); in the test on NCI-H226, 20.2 µM (inactive); in the test with SF-539, 21.5 µM (inactive); in the test with MCF7 it was 3.1 µM (inactive). Also, the GI50 with SW-620 is 11.5 µM (inactive); in the test on IGROV-1 it was 16.7 µM (inactive).
